Data from the Deep4Chem optical property database.
Blank lines part the entries; values can stand above or below the compound they belong to.

Assay: solvent given as SMILES

SMILES: Cc1cc(C(F)(F)F)nc2c1ccc1nc(-c3ccc(Cl)cc3)cn12
absorption maximum (in CC#N): 362.6 nm
absorption maximum (in CCCCCC): 376.5 nm
absorption maximum (in CCCCOC(C)=O): 368.6 nm
absorption maximum (in CCOC(C)=O): 368.2 nm
absorption maximum (in CO): 359.6 nm
absorption maximum (in Cc1ccccc1): 375.2 nm
absorption maximum (in ClC(Cl)Cl): 369.2 nm
absorption maximum (in ClCCl): 366.6 nm
absorption maximum (in c1ccccc1): 375 nm

absorption maximum (in ClCCl): 436 nm
SMILES: CCCCCCCCCCCCN1C(=O)c2c(c3ccc4cc(-c5ccc(C)cc5)c(OC)cc4c3c3c2ccc2cc(-c4ccc(C)cc4)c(OC)cc23)C1=O

absorption maximum (in C1CCCCC1): 410 nm
SMILES: CCCC1(CCC)c2cc(-c3ccc(-c4ccc(OC)cc4)o3)ccc2-c2ccc(-c3ccc(-c4ccc(OC)cc4)o3)cc21

absorption maximum (in CS(C)=O): 376 nm
SMILES: Cc1ccc(N/C=C/C=[NH+]c2ccc(C)cc2)cc1

SMILES: c1ccc(-c2nc(-c3ccccc3)nc(-c3ccc(N4c5ccccc5C5(c6ccccc6-c6ccccc65)c5ccccc54)cc3)n2)cc1
absorption maximum (in Cc1ccccc1): 399.05 nm

absorption maximum (in CCO): 378 nm
SMILES: CN(C)c1cc2oc3cc(N(C)C)c(F)cc3c(=O)c2cc1F

absorption maximum (in CC#N): 386 nm
absorption maximum (in CCO): 388 nm
absorption maximum (in O): 382 nm
SMILES: CC(=O)OC[C@@H]1O[C@H](N2C=CC3=Nc4nc(C)[n+](C)cc4CN3C2=O)[C@@H](O)[C@H]1O

absorption maximum (in ClC(Cl)Cl): 506 nm
SMILES: CC1=CC(C)=[N+]2C1=C(c1ccc(I)cc1)c1c(C)cc(C)n1[B-]21Oc2ccc3ccccc3c2-c2c(ccc3ccccc23)O1

absorption maximum (in ClCCl): 594 nm
SMILES: CCCCN1C(=O)C2=C(c3ccc(-c4ccc5c(c4)C(C)(C)c4ccccc4-5)cc3)[N-]C(=O)C2=C1c1ccc(-c2ccc3c(c2)C(C)(C)c2ccccc2-3)cc1

absorption maximum (in CO): 387 nm
SMILES: O=C(O)c1ccc(-c2cnc(-c3ccc(N(c4ccccc4)c4ccccc4)cc3)s2)cc1

SMILES: O=C(O)CCCc1cc(C#Cc2ccccc2)c2ccc3c(C#Cc4ccccc4)cc(C#Cc4ccccc4)c4ccc1c2c34
absorption maximum (in CS(C)=O): 451 nm
absorption maximum (in ClC(Cl)(Cl)Cl): 445 nm

absorption maximum (in C1CCCCC1): 586.5 nm
absorption maximum (in CCOC(C)=O): 582 nm
absorption maximum (in CO): 580.5 nm
SMILES: Cc1ccccc1C1=C2C=c3c(oc4ccccc34)=[N+]2[B-](F)(F)n2c1cc1c3ccccc3oc12

SMILES: COc1ccc(-c2csc(/C(C#N)=C\Nc3ccc(C#N)cc3)n2)cc1
absorption maximum (in CC#N): 376 nm
absorption maximum (in CCO): 378 nm
absorption maximum (in CN(C)C=O): 380 nm
absorption maximum (in Cc1ccccc1): 381 nm
absorption maximum (in ClCCl): 379 nm

absorption maximum (in CN(C)C=O): 526 nm
SMILES: O=C1NC(=O)c2ccc3c4ccc5c6c(ccc(c7ccc1c2c73)c64)C(=O)N(c1ccc(Cl)cc1)C5=O

absorption maximum (in CCCCCC): 326 nm
absorption maximum (in CCCCCCCCO): 327 nm
absorption maximum (in CCCCO): 326 nm
absorption maximum (in CCCO): 325 nm
absorption maximum (in CCO): 324 nm
absorption maximum (in CCOC(C)=O): 326 nm
absorption maximum (in CN(C)C=O): 328 nm
absorption maximum (in CO): 324 nm
absorption maximum (in ClC(Cl)Cl): 327 nm
SMILES: COc1ccc2cc(-c3ccc(C(F)(F)F)cc3)oc(=O)c2c1

SMILES: Cc1cc(Br)cn(Cn2cccc(C)c2=O)c1=N
absorption maximum (in CC(=O)O): 310 nm

absorption maximum (in ClCCl): 338 nm
SMILES: COc1ccc(/C=C/c2ccncn2)cc1

absorption maximum (in C1CCOC1): 412 nm
SMILES: CC(C)(C)c1ccc2c(c1)c1ccc3cccc4c5cccc6oc(=O)c2c(c65)c1c34

absorption maximum (in CO): 568 nm
SMILES: C#CCOc1ccc(/C=C/C2=[N+]3C(=C(c4ccc(N(CC)CC)cc4)c4c(C)cc(C)n4[B-]3(F)F)C(C)=C2)cc1

absorption maximum (in CC#N): 572 nm
SMILES: CC1=C(/C=C/c2ccccc2)C2=Cc3c(/C=C/c4ccccc4)c(C)c(C)n3[B-](F)(F)[N+]2=C1C

absorption maximum (in ClCCl): 651 nm
SMILES: CC(C)[Si](C#Cc1c2cc3ccccc3cc2c(C#Cc2ccc(F)cc2)c2cc3ccccc3cc12)(C(C)C)C(C)C

absorption maximum (in CC#N): 452 nm
absorption maximum (in CCCCCC): 492 nm
absorption maximum (in CCOC(C)=O): 464 nm
absorption maximum (in CO): 458 nm
absorption maximum (in ClCCl): 468 nm
SMILES: N#CSc1ccc2n1[B-](F)(F)[N+]1=C(N3CCOCC3)C=CC1=C2c1ccccc1

SMILES: CCc1c(C)c2n(c1C)[B-](F)(F)[N+]1=C(c3ccc[nH]3)c3ccccc3C1=C2C
absorption maximum (in C1CCOC1): 604 nm
absorption maximum (in CC#N): 597 nm
absorption maximum (in CCCCCC): 604 nm
absorption maximum (in CO): 599 nm
absorption maximum (in Cc1ccccc1): 609 nm
absorption maximum (in ClCCl): 605 nm

absorption maximum (in CC#N): 418 nm
absorption maximum (in ClCCl): 420 nm
SMILES: COC(=O)c1cc(=O)n(C)c2cc(-c3ccc(N4CCN(C)CC4)cc3)sc12

absorption maximum (in ClCCl): 346 nm
SMILES: F[B-]1(F)Oc2ccc3ccccc3c2-c2c3c(c4c([n+]21)CCc1ccccc1-4)CCc1ccccc1-3

SMILES: CCCCCCCCCCCCn1nnc(-c2ccc(C#Cc3ccc(C#Cc4ccc(-c5nnn(CCCCCCCCCCCC)n5)cc4)c4nc5c6ccccc6c6ccccc6c5nc34)cc2)n1
absorption maximum (in C1CCOC1): 428 nm
absorption maximum (in Cc1ccccc1): 428 nm
absorption maximum (in ClCCl): 428 nm

absorption maximum (in C1CCOC1): 354.46 nm
SMILES: CC(C)(C)c1ccc(-c2nc(-c3ccc(-n4c5ccccc5c5c6oc7ccccc7c6ccc54)cc3)nc(-c3ccc(C(C)(C)C)cc3)n2)cc1

absorption maximum (in ClCCl): 337 nm
SMILES: CCCCn1c2ccc3ccc4ccccc4c3c2c2c3c(ccc4ccccc43)ccc21

absorption maximum (in ClC(Cl)Cl): 495 nm
SMILES: CCn1c2ccccc2sc2c(C#N)c3[nH]c4ccccc4sc3c(C#N)c21

absorption maximum (in C1CCCCC1): 365 nm
SMILES: C1=C(c2ccccc2)B(c2ccccc2)Nc2c1ccc1ccccc21

SMILES: CCn1c2ccccc2c2cc(C#Cc3cc(C#Cc4ccc5c(c4)c4ccccc4n5CC)nc(C#N)n3)ccc21
absorption maximum (in C1CCOC1): 410 nm
absorption maximum (in CCOC(C)=O): 405 nm
absorption maximum (in CN(C)C=O): 411 nm
absorption maximum (in Cc1ccccc1): 410 nm
absorption maximum (in ClCCl): 415 nm

absorption maximum (in ClC(Cl)Cl): 767 nm
SMILES: CC(C)(C)c1ccc(C2=c3sc(-c4ccc(C(C)(C)C)cc4)cc3=[N+]3C2=Nc2c(-c4ccc(C(C)(C)C)cc4)c4sc(-c5ccc(C(C)(C)C)cc5)cc4n2[B-]3(F)F)cc1

absorption maximum (in C1CCOC1): 493 nm
SMILES: Cc1cscc1-c1cc2c3cc(-c4cscc4C)c4nc(C(F)(F)C(F)(F)C(F)(F)F)nc5c(-c6cscc6C)cc(c6cc(-c7cscc7C)c7nc(C(F)(F)C(F)(F)C(F)(F)F)nc1c7c26)c3c45

SMILES: Oc1ccccc1-c1nc2c3ccccc3c3ccccc3c2n1-c1ccccc1
absorption maximum (in Cc1ccccc1): 335 nm

absorption maximum (in C1CCCCC1): 333 nm
absorption maximum (in CCO): 330 nm
SMILES: Cc1cc(=O)oc2c1cc(Br)c1occ(C)c12

absorption maximum (in CC#N): 574 nm
absorption maximum (in CCCCCC): 577 nm
absorption maximum (in CCOC(C)=O): 575 nm
absorption maximum (in CO): 574 nm
absorption maximum (in ClCCl): 579 nm
SMILES: CCCSC1=[N+]2C(=C(c3ccccc3)c3ccc(SCCC)n3[B-]2(F)F)C=C1

absorption maximum (in ClCCl): 377 nm
SMILES: c1ccc(-c2nc(-c3ccc(N4c5ccccc5Sc5ccccc54)cc3)nn2-c2ccc(N3c4ccccc4Sc4ccccc43)cc2)nc1

absorption maximum (in C1CCCCC1): 331 nm
SMILES: CCC(C)(C)c1ccc2c(c1)C(CC)(CC)c1cc(-c3ccc4c(c3)C(CC)(CC)c3cc(C(C)(C)CC)ccc3-4)ccc1-2

absorption maximum (in ClCCl): 609 nm
SMILES: CC1=CC(C)=[N+]2C1=Cc1c3ccccc3c(-c3[nH]c(C)cc3C)n1[B-]2(F)F

absorption maximum (in C1CCCCC1): 380 nm
absorption maximum (in CC#N): 383 nm
absorption maximum (in CCO): 386 nm
absorption maximum (in ClCCl): 386 nm
SMILES: O=P1(c2ccccc2)C2=C(c3ccccc31)S(=O)(=O)c1ccccc12 (stereo not drawn)

absorption maximum (in ClCCl): 508 nm
SMILES: CN(C)c1ccc(C#Cc2cc(C#Cc3ccc(N(C)C)cc3)c3ccc4c(C#Cc5ccc(N(C)C)cc5)cc(C#Cc5ccc(N(C)C)cc5)c5ccc2c3c54)cc1

absorption maximum (in CCCCCC): 638 nm
SMILES: CC(C)[Si](C#Cc1c2nc3ccccc3nc2c(C#C[Si](C(C)C)(C(C)C)C(C)C)c2nc3c(ccc4cc5ccccc5cc43)nc12)(C(C)C)C(C)C

absorption maximum (in CC#N): 305 nm
SMILES: Fc1nc(F)c(F)c(C#Cc2nccnc2C#Cc2c(F)c(F)nc(F)c2F)c1F

absorption maximum (in ClCCl): 465 nm
SMILES: COc1ccc2c(c1)CCC1=C(C#Cc3cc4ccccc4c4ccccc34)O[B-](F)(F)[O+]=C12

absorption maximum (in CCCCCC): 445 nm
absorption maximum (in CO): 461 nm
SMILES: O=C1C=C(Nc2ccc(F)cc2)C(=O)c2ccccc21

absorption maximum (in ClCCl): 532 nm
SMILES: F[B-]1(F)n2c(Cl)c(Cl)c(Br)c2C(Oc2ccccc2)=C2C(Br)=C(Cl)C(Cl)=[N+]21

absorption maximum (in C1CCOC1): 676 nm
absorption maximum (in ClCCl): 685 nm
SMILES: CCCCCCCc1cc2c(o1)=CC1=C3c4cc5oc(CCCCCCC)cc5n4[B-](F)(F)[n+]4nnn(c43)[B-](F)(F)[N+]=21

absorption maximum (in C1COCCO1): 355 nm
absorption maximum (in CC#N): 357 nm
absorption maximum (in CO): 358 nm
absorption maximum (in ClCCl): 361 nm
SMILES: CN(C)c1ncc2nc(C#N)n(Cc3ccccc3)c2n1

absorption maximum (in CC#N): 400 nm
SMILES: COc1cc2cc(/C=C/c3ccc(/C=C(\C#N)C(=O)O)cc3)c(=O)oc2cc1OC

absorption maximum (in O): 370 nm
SMILES: O=C(NCc1cc(=O)oc2cc([O-])c(Br)cc12)c1cccnc1

absorption maximum (in C1CCOC1): 360 nm
absorption maximum (in CC#N): 356 nm
absorption maximum (in CCOC(C)=O): 362 nm
absorption maximum (in CS(C)=O): 355 nm
absorption maximum (in ClC(Cl)Cl): 364 nm
SMILES: N#Cc1cc2ccc(O)cc2oc1=N

absorption maximum (in C1CCCCC1): 390 nm
SMILES: CCOC(=O)c1cc(C)n2nc(-c3ccccc3)ccc12

SMILES: Cc1ccc(C2=C3C=CC(C#Cc4ccccc4)=[N+]3[B-](F)(F)n3c(C#Cc4ccccc4)ccc32)cc1
absorption maximum (in C1CCCCC1): 615 nm
absorption maximum (in C1CCOC1): 610 nm
absorption maximum (in C1COCCO1): 612 nm
absorption maximum (in CCOC(C)=O): 607 nm
absorption maximum (in CO): 605 nm
absorption maximum (in Cc1ccccc1): 614 nm
absorption maximum (in ClC(Cl)Cl): 614 nm
absorption maximum (in ClCCl): 614 nm

absorption maximum (in CC#N): 371 nm
absorption maximum (in CCCCCC): 371 nm
SMILES: C(=C\c1ccc2ccccc2c1)/c1ccc(N(c2ccccc2)c2ccccc2)cc1

absorption maximum (in ClCCl): 421 nm
SMILES: CCCCCCCCCCOc1ccc(C#Cc2cc3c(C#Cc4ccc(OCCCCCCCCCC)cc4)c(C#Cc4ccc(OCCCCCCCCCC)cc4)c4cc(C#Cc5ccc(OCCCCCCCCCC)cc5)cc5c(C#Cc6ccc(OCCCCCCCCCC)cc6)c(C#Cc6ccc(OCCCCCCCCCC)cc6)c(c2)c3c45)cc1

absorption maximum (in ClCCl): 793 nm
SMILES: Cc1ccc(C2=[N+]3C(=Nc4c5ccccc5c(-c5ccc(C)s5)n4[B-]3(F)F)c3ccccc32)s1

absorption maximum (in ClCCl): 373 nm
SMILES: C[Si]1(C)O[Si](C)(C)c2cc3nc4ccc(Cl)cc4c(-c4ccccc4)c3cc2[Si](C)(C)O1
